Values quoted from earlier work as cited in patent US20120183587A1, “FLAVONOL COMPOSITIONS” (priority 2011, published 2012).

Conditions: Guglen et al., Eur. J. Clin. Pharmacol. 1975

extent of absorption from an oral dose: about 1%
Compound: O=c1c(O)c(-c2ccc(O)c(O)c2)oc2cc(O)cc(O)c12 [quercetin, 3,3′,4′,5,7-pentahydroxy-2-phenylchromen-4-one]
